Data from US5688938A, “Calcium receptor-active molecules” (priority 1995, dated 1997).

What was measured:
[1] = serum ionized Ca^2+ in parathyroidectomized rats; assay type: in vivo, rat; details: oral
Text: To determine the primary target tissue upon which NPS R-467 acts to cause a hypocalcemic response, the parathyroid glands in rats were surgically removed. Animals receiving a total parathyroidectomy become hypocalcemic and are largely dependent upon dietary calcium to maintain serum Ca^2+ homeostasis.

[2] = serum/plasma Ca^2+, PTH and calcitonin in rats, oral; assay type: in vivo; details: rat, oral
Text: Rats (male, Sprague-Dawley, 250-300 g) were fed standard rat chow and fasted overnight prior to the experiment. NPS R-467 was suspended in corn oil and administered as a single oral dose through a gavage needle. Three hours later a sample of blood was taken from the tail vein and assessed for ionized Ca^2+ levels.

bovine parathyroid cells = assay: PTH secretion from bovine parathyroid cells; assay type: cell-based
Text: In most experiments, cells loaded with fura-2 were also used in studies of PTH secretion.

human parathyroid cells = assay: PTH secretion from human parathyroid cells; assay type: cell-based
Procedure: PTH secretion was measured by first suspending cells in PCB containing 0.5 mM CaCl2 and 0.1% BSA.
For human cells, a commercially available radioimmunoassay kit (INS-PTH; Nichols Institute, Los Angeles, Calif.) which recognizes intact and N-terminal human PTH was used because GW-1 antibody recognizes human PTH poorly.

[3] = target: T1, parathyroid cell calcium receptor (Homo sapiens, UniProt P41180); assay: [Ca^2+]i (fura-2) in human parathyroid cells; assay type: cell-based
T1 construct: Dissociated parathyroid cells were prepared from a parathyroid adenoma obtained by surgery from a patient with primary hyperparathyroidism; endogenous in cells; host or cells: primary dissociated human parathyroid cells (adenoma or hyperplastic tissue from surgery)
T1 sequence (P41180 20-1078): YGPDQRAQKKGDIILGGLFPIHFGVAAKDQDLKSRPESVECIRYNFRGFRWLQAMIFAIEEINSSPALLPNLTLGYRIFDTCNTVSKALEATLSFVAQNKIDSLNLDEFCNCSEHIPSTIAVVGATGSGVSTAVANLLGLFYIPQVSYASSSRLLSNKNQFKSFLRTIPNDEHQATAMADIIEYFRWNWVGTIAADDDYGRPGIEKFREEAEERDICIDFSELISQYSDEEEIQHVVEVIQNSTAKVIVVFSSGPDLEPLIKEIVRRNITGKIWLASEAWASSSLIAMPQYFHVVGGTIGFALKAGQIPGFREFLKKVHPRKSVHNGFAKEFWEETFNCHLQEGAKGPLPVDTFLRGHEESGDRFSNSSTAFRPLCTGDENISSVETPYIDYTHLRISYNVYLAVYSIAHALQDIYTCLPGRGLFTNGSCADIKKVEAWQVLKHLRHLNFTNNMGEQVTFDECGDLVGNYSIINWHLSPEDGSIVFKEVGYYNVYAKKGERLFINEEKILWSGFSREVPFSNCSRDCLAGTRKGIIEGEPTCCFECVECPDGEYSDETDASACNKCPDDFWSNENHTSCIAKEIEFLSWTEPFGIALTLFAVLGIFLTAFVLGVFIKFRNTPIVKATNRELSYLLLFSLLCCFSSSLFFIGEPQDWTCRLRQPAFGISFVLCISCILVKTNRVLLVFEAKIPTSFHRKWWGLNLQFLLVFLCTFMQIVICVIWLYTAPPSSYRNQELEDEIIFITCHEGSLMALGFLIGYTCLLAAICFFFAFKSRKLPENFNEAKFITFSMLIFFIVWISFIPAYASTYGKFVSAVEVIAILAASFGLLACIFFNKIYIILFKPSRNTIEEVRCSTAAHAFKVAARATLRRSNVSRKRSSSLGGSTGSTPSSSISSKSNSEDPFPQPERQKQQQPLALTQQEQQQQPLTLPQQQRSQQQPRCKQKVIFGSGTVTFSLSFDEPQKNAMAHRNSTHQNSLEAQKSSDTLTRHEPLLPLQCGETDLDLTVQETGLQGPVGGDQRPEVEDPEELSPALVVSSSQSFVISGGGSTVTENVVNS
Procedure: This section describes procedures used to obtain and treat parathyroid cells from calves and humans. […] Human parathyroid glands, were obtained from patients undergoing surgical removal of parathyroid tissue for primary or uremic hyperparathyroidism (uremic HPT), and were treated similarly to bovine tissue.
Dissociated parathyroid cells were prepared from a parathyroid adenoma obtained by surgery from a patient with primary hyperparathyroidism.

| Compound | hypocalcemic response in parathyroidectomized rats [1] | hypocalcemic response after prior complete nephrectomy [2] | inhibition of PTH secretion (bovine parathyroid cells) | inhibition of PTH secretion (human parathyroid cells) | increase in [Ca^2+]i ([3]; 20 μM) | increases in [Ca^2+]i ([3]; human adenoma cells) | EC50 ([3]; human parathyroid cells) [µM] |
| --- | --- | --- | --- | --- | --- | --- | --- |
| COc1cccc([C@@H](C)NCCCc2ccccc2Cl)c1 [NPS R-568, (R)-(+)-N-[3-(2-chlorophenyl)propyl]-α-methyl-3-methoxybenzylamine] | fails to elicit a hypocalcemic response | only marginally affected |  |  |  |  |  |
| NC[C@@H]1O[C@H](O[C@H]2[C@@H](O)[C@H](O[C@@H]3[C@@H](O)[C@H](N)C[C@H](N)[C@H]3O[C@H]3O[C@H](CN)[C@@H](O)[C@H](O)[C@H]3N)O[C@@H]2CO)[C@H](N)[C@@H](O)[C@@H]1O [Neomycin] |  |  | inhibited PTH secretion to the same extent as extracellular Ca^2+ | inhibited PTH secretion from human parathyroid cells | large increase in [Ca^2+ ]i | not only a transient, but additionally a steady-state increase in [Ca^2+ ]i | 20 |
